Measurements published in the NIST ThermoML archive (doi:10.1021/je0498208).
± gives the expanded uncertainty stated by the source.

What was measured:
[1] = Liquid; for viscosity: 101 kPa; for mass density: 101.3 kPa
[2] = xn = mol fraction of the nth substance listed; conditions: Liquid, x2 = 0; for viscosity: 101 kPa; for mass density: 101.3 kPa

O=CN1CCOCC1 [N-formylmorpholine]
[1]
Conditions | mass density [kg/m3] | viscosity [mPa·s]
298.15 K | 1146.62 ± 1.2 | 7.87 ± 0.22
303.15 K | 1142.26 ± 1.2 | 6.75 ± 0.2
313.15 K | 1133.53 ± 1.2 | 5.13 ± 0.15
323.15 K | 1124.82 ± 1.2 | 4.03 ± 0.12
333.15 K | 1116.11 ± 1.1 | 3.25 ± 0.1
343.15 K | 1107.39 ± 1.1 | 2.68 ± 0.08

O [water]
[1]
Conditions | mass density [kg/m3] | viscosity [mPa·s]
298.15 K | – | 0.89 ± 0.027
303.15 K | – | 0.7976 ± 0.025
313.15 K | – | 0.6531 ± 0.02
323.15 K | 988.04 ± 0.13 | 0.547 ± 0.017
333.15 K | 983.12 ± 0.13 | 0.466 ± 0.015
343.15 K | 977.77 ± 0.13 | 0.4049 ± 0.013

O [water] + O=CN1CCOCC1
[2]
Conditions | mass density [kg/m3] | viscosity [mPa·s]
298.15 K | – | 0.89 ± 0.027
303.15 K | – | 0.7976 ± 0.025
313.15 K | – | 0.6531 ± 0.02
323.15 K | 988.04 ± 0.13 | 0.547 ± 0.017
333.15 K | 983.12 ± 0.13 | 0.466 ± 0.015
343.15 K | 977.77 ± 0.13 | 0.4049 ± 0.013
